Assay results published in article PMC9097471, “Development of Selective Phosphatidylinositol 5-Phosphate 4-Kinase γ Inhibitors with a Non-ATP-competitive, Allosteric Binding Mode” (Journal of Medicinal Chemistry, 2022).
Where two headings read alike, the source gives them in different places.

Tests used:
[1] = target: T1, PI5P4Kγ+ (Homo sapiens, UniProt Q8TBX8, D138G/D197E/E133P/E135D/E153T/E196G/G136S/G139A/N195G/S132L/S134N); experiment: ADP-Glo inhibition assay; assay type: biochemical; settings: for IC50: ADP-Glo; for PI5P4Kγ+ LE: ligand efficiency from PI5P4Kγ+ pIC50
T1 construct: GST (N, cleaved yes); made in house; host or cells: E. coli BL21(DE3), pGEX6P
T1 sequence (Q8TBX8 with tags, fused parts or gaps INS131LPN/S132D/E133S/S134Q/E135A/G136R/D138G/G139A/E153T/N195G/E196G/D197E): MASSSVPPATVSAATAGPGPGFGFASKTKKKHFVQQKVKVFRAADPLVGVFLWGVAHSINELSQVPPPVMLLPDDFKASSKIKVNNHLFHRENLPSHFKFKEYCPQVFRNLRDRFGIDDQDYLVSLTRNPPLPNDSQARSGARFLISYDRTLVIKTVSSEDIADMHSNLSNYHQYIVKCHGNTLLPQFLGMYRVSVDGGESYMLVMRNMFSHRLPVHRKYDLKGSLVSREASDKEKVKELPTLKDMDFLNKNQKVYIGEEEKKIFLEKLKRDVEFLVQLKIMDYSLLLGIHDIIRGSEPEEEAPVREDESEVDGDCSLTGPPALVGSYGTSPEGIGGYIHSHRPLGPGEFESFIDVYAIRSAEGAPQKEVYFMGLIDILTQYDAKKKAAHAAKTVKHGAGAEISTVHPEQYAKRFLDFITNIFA
Method: Recombinant mutant PI5P4Kγ+ was prepared essentially as described previously.[25] […] Cultures were induced with 0.4 mM IPTG and probe sonicated in the presence of protease inhibitors. The GST fusion protein of PI5P4Kγ+ was harvested by binding to glutathione sepharose beads (Cytiva) and cleaved in situ with 50U of PreScission protease (Cytiva) for 4 h at 4 °C. The cleaved protein was further purified by size-exclusion chromatography (AKTA Pure, Cytiva). The protein purity was confirmed by sodium dodecyl sulphate–polyacrylamide gel electrophoresis, and the concentration was determined by colorimetric assay (Bio-Rad).
Statistical analysis was performed using nonparametric testing in Prism 8 (GraphPad). Activity pIC50 values and in vivo binding pEC50 values were estimated using a 4-parameter fit (Dotmatics).

[2] = Liver microsomal stability; assay type: in vitro ADME; settings: liver microsomes; Human liver microsomal hepatic stability; read-out: HLM t1/2
[3] = Plasma protein binding; assay type: in vitro ADME; settings: Mouse plasma protein binding; read-out: mPPB (converted)
Method: Plasma protein binding analysis was performed by Charles River Laboratories Inc. (ADME-SOP-90). Briefly, compounds in DMSO (10 µM, 0.5% DMSO final) were added to mouse plasma and dialysed against buffer for 4 hours at 37 °C. The compound concentration in each of the plasma and buffer compartments was determined by mass spectrometry and used to calculate the percentage compound bound. […]

[4] = Caco-2 cell permeability; assay type: in vitro ADME; settings: human; for Papp A→B at 1 h, 10 µM: Caco-2, apical-to-basolateral; for efflux ratio at 1 h, 10 µM: Caco-2 efflux ratio (B-A/A-B), read-out: ER
Method: Permeability: bi-directional Caco-2 cell permeability was performed by Charles River Laboratories Inc. (ADME-SOP-49). Briefly, compounds were administered at 10 µM (1% DMSO final) to the apical or basolateral side of a polarised Caco-2 cell monolayer, then incubated at 37 °C for 60 minutes before appearance on the opposite side of the monolayer was determined by mass spectrometry. The efflux ratio (ER) is calculated from the ratio of B-A […]

[5] = Chromatographic LogD (HPLC method); assay type: physicochemical; settings: pH 7.4, read-out: mchrom log D7.4
Method: 5-100% gradient of MeCN in 50mM NH4OAc in H 2O adjusted to pH 7.4. […]

[6] = target: T2, PI5P4Kγ-WT (Homo sapiens, UniProt Q8TBX8); experiment: Thermal shift assay; settings: read-out: ΔTm PI5P4Kγ WT, thermal shift, compound 63 μM
T2 sequence (Q8TBX8 1-421): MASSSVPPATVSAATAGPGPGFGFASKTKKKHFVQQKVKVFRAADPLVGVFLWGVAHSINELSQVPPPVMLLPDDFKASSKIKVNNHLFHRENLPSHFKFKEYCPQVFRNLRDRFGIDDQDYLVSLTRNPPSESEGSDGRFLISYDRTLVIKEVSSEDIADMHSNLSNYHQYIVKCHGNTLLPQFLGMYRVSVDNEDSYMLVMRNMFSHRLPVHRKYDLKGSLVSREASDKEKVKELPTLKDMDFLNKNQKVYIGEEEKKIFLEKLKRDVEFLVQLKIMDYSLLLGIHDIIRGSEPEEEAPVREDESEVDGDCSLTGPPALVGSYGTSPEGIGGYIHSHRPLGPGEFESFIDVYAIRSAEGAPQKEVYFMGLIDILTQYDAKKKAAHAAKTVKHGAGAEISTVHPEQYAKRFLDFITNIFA

[7] = target: T3, PI5P4Kα-WT (Homo sapiens, UniProt P48426); experiment: ADP-Glo inhibition assay; settings: ADP-Glo
T3 sequence (P48426 1-406): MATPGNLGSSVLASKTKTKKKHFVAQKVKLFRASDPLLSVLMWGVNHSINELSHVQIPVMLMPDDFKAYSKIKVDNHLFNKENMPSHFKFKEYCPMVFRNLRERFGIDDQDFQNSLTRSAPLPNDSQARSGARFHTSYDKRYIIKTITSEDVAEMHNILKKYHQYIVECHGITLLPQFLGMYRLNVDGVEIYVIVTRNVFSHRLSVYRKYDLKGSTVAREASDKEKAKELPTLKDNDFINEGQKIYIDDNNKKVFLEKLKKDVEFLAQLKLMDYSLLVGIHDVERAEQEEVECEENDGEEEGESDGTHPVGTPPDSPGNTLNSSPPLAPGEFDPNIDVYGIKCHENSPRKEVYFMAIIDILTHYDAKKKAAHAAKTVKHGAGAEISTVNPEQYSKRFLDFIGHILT
Description: To enable direct comparisons, Promega’s ADP-Glo reporter assay was developed using a mutant form of the kinase. […] To mitigate concerns about being misled by the use of the PI5P4Kγ+ construct and the possible introduction of PI5P4Kα activity into the molecules, our screening cascade included the measurement of ADP-Glo activity at PI5P4Kα-WT (and PI5P4Kβ-WT to fully understand emerging selectivity profiles).

[8] = target: MNK2 (Homo sapiens, UniProt Q9HBH9); experiment: Kinase panel, radiometric 33P filter binding; settings: read-out: % activity remaining
MNK2, sequence (Q9HBH9 whole entry): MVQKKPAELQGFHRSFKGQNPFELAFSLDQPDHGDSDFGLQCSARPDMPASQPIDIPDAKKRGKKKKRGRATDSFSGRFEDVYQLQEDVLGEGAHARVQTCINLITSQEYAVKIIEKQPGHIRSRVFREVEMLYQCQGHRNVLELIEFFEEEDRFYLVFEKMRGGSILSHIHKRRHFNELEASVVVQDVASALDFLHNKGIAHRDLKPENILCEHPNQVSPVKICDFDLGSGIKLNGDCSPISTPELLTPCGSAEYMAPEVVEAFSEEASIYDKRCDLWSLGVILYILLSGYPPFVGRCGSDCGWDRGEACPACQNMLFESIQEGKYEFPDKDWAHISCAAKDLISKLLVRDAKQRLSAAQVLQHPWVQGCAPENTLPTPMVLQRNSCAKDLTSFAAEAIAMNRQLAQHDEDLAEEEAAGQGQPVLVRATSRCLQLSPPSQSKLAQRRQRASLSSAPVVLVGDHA

[9] = target: CK2 (Homo sapiens, UniProt P68400); experiment: Kinase panel, radiometric 33P filter binding; settings: read-out: % activity remaining
CK2, sequence (P68400 whole entry): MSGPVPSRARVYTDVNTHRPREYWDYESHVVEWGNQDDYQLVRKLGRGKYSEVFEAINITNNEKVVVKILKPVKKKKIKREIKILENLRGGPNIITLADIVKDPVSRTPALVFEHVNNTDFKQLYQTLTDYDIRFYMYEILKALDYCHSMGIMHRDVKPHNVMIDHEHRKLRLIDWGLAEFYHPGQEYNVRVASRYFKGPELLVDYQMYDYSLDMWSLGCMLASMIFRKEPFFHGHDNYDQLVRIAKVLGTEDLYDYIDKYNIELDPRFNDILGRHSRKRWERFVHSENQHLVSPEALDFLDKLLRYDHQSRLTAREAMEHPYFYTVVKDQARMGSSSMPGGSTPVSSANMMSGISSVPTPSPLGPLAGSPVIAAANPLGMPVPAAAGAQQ
Description: (§1) filter binding assay using 33P-g-ATPat the MRC PPU International Centre for Kinase Profiling, University of

[10] = target: IKKb (Homo sapiens, UniProt O14920); experiment: Kinase panel, radiometric 33P filter binding; settings: read-out: % activity remaining
IKKb, sequence (O14920 whole entry): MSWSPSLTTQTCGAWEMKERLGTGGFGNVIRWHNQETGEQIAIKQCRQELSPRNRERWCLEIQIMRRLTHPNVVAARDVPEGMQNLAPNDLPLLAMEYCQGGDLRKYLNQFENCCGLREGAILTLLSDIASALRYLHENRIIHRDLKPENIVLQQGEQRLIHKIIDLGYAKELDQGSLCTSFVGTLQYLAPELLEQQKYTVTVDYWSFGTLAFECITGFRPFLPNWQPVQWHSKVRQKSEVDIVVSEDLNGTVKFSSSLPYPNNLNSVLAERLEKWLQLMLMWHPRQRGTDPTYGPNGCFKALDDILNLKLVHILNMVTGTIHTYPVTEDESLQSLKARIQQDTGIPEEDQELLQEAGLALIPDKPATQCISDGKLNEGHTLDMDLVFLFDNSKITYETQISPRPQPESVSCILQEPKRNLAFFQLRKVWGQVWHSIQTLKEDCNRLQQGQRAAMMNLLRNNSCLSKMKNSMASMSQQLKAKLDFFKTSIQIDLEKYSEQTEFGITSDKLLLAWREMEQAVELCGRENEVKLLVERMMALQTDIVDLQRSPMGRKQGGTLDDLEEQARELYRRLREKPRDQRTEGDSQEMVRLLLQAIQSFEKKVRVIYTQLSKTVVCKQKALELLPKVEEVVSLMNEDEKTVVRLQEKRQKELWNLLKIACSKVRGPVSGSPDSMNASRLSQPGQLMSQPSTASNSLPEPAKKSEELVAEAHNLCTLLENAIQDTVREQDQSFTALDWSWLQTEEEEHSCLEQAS
Description: as §1
Kinase % activity remaining s.d.

[11] = target: EIF2AK3 (Homo sapiens, UniProt Q9NZJ5); experiment: Kinase panel, radiometric 33P filter binding; settings: read-out: % activity remaining
EIF2AK3, sequence (Q9NZJ5 30-1116): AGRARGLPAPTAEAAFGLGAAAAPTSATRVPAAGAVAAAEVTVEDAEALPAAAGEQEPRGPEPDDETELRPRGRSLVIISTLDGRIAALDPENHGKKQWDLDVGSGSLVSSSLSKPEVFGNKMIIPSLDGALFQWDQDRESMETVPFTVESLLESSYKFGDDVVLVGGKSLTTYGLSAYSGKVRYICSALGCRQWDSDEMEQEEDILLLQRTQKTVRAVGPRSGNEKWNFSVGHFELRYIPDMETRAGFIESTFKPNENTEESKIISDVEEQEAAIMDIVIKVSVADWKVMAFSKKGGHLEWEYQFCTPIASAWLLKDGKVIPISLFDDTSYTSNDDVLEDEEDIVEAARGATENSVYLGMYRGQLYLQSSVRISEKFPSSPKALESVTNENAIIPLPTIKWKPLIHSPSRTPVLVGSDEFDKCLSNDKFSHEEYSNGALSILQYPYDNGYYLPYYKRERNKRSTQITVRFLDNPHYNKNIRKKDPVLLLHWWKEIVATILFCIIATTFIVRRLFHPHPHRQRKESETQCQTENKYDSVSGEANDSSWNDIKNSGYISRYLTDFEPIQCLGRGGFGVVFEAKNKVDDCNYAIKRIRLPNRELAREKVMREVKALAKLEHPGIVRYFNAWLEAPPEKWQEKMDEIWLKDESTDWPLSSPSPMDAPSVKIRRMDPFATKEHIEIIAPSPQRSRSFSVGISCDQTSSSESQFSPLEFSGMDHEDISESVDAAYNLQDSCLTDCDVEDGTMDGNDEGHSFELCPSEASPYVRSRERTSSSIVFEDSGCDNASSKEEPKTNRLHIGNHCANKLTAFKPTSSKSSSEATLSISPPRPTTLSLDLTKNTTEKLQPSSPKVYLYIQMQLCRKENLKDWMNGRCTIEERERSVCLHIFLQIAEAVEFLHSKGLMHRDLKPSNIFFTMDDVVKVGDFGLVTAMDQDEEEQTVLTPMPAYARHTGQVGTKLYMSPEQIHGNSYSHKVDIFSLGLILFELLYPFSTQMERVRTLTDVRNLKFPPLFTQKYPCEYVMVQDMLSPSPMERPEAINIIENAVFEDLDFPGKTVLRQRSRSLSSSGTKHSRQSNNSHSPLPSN
Description: as §1

[12] = target: MAP4K3 (Homo sapiens, UniProt Q8IVH8); experiment: Kinase panel, radiometric 33P filter binding; settings: read-out: % activity remaining
MAP4K3, sequence (Q8IVH8 whole entry): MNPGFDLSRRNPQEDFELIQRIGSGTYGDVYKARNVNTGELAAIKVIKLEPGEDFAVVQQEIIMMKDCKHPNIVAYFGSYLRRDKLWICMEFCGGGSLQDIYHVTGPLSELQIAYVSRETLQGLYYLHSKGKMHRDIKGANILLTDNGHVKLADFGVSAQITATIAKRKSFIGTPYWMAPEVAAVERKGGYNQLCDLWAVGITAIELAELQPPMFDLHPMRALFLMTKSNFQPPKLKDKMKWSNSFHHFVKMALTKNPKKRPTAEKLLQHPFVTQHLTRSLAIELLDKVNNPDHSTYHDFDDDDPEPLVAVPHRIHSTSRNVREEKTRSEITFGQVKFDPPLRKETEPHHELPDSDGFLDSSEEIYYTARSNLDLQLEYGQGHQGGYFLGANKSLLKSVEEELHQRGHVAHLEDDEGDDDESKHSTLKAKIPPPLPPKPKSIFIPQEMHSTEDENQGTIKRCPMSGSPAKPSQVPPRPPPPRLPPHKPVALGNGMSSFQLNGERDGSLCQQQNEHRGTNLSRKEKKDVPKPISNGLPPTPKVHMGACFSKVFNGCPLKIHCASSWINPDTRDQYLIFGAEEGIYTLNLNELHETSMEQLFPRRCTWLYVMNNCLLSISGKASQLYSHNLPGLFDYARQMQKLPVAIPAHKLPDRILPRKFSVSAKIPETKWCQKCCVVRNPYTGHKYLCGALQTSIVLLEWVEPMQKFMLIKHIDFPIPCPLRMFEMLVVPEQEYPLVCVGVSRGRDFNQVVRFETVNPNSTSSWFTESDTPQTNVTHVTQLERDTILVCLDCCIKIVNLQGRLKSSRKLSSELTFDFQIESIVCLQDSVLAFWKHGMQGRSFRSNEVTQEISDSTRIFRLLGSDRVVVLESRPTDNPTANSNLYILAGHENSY
Description: as §1

[13] = target: EPH-B4 (Homo sapiens, UniProt P54760); experiment: Kinase panel, radiometric 33P filter binding; settings: read-out: % activity remaining
EPH-B4, sequence (P54760 16-987): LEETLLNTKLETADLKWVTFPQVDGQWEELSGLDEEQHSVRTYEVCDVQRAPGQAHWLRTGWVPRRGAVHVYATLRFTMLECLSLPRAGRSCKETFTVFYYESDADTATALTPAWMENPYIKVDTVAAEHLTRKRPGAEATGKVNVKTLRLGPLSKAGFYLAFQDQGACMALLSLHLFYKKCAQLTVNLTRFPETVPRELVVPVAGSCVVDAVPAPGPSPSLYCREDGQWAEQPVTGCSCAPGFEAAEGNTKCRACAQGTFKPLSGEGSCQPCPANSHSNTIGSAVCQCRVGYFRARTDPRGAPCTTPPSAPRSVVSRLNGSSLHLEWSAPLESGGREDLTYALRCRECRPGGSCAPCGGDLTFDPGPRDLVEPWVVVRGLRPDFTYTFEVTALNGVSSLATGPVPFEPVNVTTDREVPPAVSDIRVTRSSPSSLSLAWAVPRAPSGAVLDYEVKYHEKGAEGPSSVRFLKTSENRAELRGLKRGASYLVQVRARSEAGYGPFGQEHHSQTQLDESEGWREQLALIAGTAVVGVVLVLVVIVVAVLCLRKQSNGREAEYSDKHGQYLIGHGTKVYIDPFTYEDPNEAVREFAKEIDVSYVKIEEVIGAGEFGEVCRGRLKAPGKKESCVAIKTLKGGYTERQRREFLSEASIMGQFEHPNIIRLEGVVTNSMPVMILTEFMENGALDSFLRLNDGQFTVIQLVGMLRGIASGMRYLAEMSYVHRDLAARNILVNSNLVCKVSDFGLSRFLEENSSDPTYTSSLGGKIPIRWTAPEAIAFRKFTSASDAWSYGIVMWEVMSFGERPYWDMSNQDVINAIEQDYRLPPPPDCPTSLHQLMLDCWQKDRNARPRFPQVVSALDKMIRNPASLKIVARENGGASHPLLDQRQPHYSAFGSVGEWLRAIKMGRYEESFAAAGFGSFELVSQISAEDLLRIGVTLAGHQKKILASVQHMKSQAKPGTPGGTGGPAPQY
Description: as §1

Row | IC50 ([1]; new data, read-out: PI5P4Kγ+ IC50) | IC50 ([7]; read-out: PI5P4Kα IC50, new data) | Structure (SMILES) | PI5P4Kγ+ LE [1] | half-life at 1 µM [2] | fraction unbound at 4 h, 10 µM [3] | Papp A→B at 1 h, 10 µM [4] | efflux ratio at 1 h, 10 µM [4] | chromatographic logD [5] | ΔTm at 63 µM [6] | PI5P4Kα pIC50 [7] | IC50 ([1]; mutant PI5P4Kγ+ construct, read-out: PI5P4Kγ+ pIC50 (converted)) | remaining activity at 10 µM [8] | remaining activity at 10 µM [9] | remaining activity at 10 µM [10] | remaining activity at 10 µM [11] | remaining activity at 10 µM [12] | remaining activity at 10 µM [13]
1 | 790 nM | > 50000 nM | FC(F)(F)c1ccccc1-c1nc(NCc2cccs2)c2ccccc2n1 [Compound 1, NIH-12848, reference compound] | 0.32 | 21 min | < 0.01 | 6.4 ×10⁻⁶ cm/s | 0.9 | 6.3 | 4.7 °C | <4.3 | – | – | – | – | – | – | –
2 | – | – | CC(C)c1ccccc1-c1nc(NCc2ccccn2)c2c(ccn2C)n1 [Compound 40] | 0.32 | 47 min | 0.01 | 122 ×10⁻⁶ cm/s | 0.4 | 4.5 | 6.9 °C | <4.3 | 631 nM | 117% | 90% | 100% | 103% | 91% | 120%
